Experiments:
[1] = target: Phosphatidylinositol 4,5-bisphosphate 3-kinase catalytic subunit alpha isoform (Homo sapiens, UniProt P42336); assay: Binding affinity to PI3Kalpha (unknown origin) assessed as dissociation constant
[2] = target: Phosphatidylinositol 4,5-bisphosphate 3-kinase catalytic subunit beta isoform (Homo sapiens, UniProt P42338); assay: Binding affinity to PI3Kbeta (unknown origin) assessed as dissociation constant
[3] = target: Phosphatidylinositol 4,5-bisphosphate 3-kinase catalytic subunit gamma isoform (Homo sapiens, UniProt P48736); assay: Binding affinity to PI3Kgamma (unknown origin) assessed as dissociation constant
Phosphatidylinositol 4,5-bisphosphate 3-kinase catalytic subunit gamma isoform, sequence (P48736 whole entry, canonical isoform): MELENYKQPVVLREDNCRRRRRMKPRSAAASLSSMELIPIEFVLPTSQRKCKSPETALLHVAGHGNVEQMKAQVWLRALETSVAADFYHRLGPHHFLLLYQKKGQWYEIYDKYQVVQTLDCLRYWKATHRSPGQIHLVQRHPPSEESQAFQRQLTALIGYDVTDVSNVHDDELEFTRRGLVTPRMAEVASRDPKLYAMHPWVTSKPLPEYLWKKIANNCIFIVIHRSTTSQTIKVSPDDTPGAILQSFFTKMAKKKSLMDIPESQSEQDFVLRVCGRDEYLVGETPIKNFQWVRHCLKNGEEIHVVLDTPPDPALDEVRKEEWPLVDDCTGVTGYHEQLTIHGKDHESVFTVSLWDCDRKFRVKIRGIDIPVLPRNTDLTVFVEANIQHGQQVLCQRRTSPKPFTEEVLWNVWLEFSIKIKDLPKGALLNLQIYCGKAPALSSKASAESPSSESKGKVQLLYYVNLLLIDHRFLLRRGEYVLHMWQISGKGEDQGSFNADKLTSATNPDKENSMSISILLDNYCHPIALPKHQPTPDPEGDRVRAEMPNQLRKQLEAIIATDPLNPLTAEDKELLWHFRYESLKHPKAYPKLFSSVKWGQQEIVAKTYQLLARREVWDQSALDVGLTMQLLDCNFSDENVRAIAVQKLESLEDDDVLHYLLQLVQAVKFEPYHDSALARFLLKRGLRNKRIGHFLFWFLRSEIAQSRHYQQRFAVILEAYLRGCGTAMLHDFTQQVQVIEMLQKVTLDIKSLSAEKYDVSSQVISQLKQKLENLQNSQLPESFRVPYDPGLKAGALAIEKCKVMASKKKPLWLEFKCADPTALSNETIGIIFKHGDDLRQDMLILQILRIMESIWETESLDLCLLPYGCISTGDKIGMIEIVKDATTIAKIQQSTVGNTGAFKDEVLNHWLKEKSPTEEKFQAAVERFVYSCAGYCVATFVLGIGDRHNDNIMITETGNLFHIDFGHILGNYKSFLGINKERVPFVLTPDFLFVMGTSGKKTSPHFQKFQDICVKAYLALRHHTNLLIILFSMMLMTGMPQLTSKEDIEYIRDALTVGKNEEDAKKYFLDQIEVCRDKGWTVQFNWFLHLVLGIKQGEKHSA

HBL = assay: Antiproliferative activity against human HBL cells assessed as inhibition of cell growth; format: functional
[4] = target: Proto-oncogene tyrosine-protein kinase Src (Homo sapiens, UniProt P12931); assay: Inhibition of Src kinase (unknown origin) phosphorylation at Tyr416/419 residues incubated for 24 hrs by Western blot analysis
Proto-oncogene tyrosine-protein kinase Src, sequence (P12931 2-536 limits assumed): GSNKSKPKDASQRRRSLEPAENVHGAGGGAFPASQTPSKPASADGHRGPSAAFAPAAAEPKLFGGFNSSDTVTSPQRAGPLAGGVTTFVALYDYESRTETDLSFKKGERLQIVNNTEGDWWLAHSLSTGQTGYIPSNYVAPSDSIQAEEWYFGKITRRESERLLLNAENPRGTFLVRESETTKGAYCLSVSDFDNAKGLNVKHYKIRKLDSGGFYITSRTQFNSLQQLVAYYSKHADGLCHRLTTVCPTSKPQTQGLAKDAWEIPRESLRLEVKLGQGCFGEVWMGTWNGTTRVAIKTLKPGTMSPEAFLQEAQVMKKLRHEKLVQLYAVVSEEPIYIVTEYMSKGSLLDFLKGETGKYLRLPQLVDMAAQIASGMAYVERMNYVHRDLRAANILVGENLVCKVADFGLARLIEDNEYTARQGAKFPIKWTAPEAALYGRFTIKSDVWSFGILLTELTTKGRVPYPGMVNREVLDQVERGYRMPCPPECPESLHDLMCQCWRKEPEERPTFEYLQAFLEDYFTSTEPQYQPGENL

[5] = target: Tyrosine-protein kinase Lck (Homo sapiens, UniProt P06239); assay: Inhibition of His-tagged LCK (62 to 509 residues) (unknown origin) expressed in Sf9 insect cells at 10 uM using poly (Glu, Tyr) 4:1 as substrate incubated for 1 hr by spectrometric analysis
Tyrosine-protein kinase Lck, sequence (P06239 whole entry, the tested form may be a part): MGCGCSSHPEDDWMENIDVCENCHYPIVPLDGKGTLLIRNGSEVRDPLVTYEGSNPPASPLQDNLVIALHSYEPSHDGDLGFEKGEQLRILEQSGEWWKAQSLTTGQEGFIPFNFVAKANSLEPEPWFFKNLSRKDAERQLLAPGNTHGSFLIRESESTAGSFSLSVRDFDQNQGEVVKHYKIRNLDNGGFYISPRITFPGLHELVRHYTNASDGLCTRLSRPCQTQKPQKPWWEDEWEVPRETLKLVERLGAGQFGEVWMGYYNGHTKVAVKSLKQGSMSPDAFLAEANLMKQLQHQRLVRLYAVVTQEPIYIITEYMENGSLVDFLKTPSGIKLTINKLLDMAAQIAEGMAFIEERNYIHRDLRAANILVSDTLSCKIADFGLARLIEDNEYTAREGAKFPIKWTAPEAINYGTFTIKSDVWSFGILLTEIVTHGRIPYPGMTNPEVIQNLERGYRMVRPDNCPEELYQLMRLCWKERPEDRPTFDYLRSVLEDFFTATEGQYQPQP

[6] = target: Tyrosine-protein kinase Lyn (Homo sapiens, UniProt P07948); assay: Inhibition of LYN (unknown origin)
Tyrosine-protein kinase Lyn, sequence (P07948 whole entry): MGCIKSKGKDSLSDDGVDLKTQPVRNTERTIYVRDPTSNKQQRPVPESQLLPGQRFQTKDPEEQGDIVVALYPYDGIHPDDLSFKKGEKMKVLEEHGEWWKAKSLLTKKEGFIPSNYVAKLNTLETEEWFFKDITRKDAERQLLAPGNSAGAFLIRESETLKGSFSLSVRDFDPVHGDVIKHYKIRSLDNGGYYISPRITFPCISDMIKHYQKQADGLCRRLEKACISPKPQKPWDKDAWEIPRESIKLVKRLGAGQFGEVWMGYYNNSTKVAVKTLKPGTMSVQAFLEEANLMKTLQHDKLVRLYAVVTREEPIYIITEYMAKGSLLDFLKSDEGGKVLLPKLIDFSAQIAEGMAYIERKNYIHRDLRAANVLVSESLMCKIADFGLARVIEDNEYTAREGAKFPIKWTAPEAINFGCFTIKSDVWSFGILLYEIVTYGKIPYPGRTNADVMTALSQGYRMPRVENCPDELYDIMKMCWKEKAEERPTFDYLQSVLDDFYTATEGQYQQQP

MDA-MB-231 [7] = assay: Antitumor activity against human MDA-MB-231 cells xenografted in athymic nude mouse assessed as the inhibition of tumor growth at 25 mg/kg, ip administered twice daily for 14 days relative to control; format: functional; details: MDA-MB-231, 336 h, time 14 day, read-out: TGI
MDA-MB-231 [8] = assay: Antitumor activity against human MDA-MB-231 cells xenografted in athymic nude mouse assessed as the inhibition of tumor growth at 65 mg/kg, ip measured at 24 hrs post-dose relative to control; details: MDA-MB-231, 24 h, read-out: TGI

Phosphatidylinositol 4,5-bisphosphate 3-kinase catalytic subunit alpha isoform, sequence (P42336 whole entry, canonical isoform): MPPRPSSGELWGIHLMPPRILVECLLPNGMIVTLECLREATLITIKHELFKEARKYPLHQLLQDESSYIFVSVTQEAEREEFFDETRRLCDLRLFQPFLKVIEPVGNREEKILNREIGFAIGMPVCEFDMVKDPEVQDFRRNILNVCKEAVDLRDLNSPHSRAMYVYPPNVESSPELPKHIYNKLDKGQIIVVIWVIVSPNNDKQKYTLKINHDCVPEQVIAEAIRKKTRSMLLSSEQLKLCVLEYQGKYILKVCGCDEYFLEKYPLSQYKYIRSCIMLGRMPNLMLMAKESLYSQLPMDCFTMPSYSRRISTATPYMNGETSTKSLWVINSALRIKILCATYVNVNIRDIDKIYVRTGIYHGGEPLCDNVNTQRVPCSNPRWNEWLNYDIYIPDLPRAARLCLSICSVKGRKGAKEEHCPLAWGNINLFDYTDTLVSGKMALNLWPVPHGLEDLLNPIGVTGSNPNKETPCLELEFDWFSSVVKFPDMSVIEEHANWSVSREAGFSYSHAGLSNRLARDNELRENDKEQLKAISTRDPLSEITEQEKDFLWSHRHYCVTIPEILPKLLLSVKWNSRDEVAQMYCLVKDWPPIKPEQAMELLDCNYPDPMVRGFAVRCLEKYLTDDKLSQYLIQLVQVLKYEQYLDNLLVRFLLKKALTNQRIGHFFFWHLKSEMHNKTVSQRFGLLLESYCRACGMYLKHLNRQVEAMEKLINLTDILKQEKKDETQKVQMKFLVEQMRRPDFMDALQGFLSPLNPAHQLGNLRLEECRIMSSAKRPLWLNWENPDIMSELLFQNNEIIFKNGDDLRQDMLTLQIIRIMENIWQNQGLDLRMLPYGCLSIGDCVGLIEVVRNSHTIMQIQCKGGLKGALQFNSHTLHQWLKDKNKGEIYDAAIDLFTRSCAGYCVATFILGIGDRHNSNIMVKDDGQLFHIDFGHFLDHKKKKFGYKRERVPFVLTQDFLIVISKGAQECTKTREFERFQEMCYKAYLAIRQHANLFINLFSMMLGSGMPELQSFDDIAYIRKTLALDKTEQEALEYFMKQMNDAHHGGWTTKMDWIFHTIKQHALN
Phosphatidylinositol 4,5-bisphosphate 3-kinase catalytic subunit beta isoform, sequence (P42338 whole entry, canonical isoform): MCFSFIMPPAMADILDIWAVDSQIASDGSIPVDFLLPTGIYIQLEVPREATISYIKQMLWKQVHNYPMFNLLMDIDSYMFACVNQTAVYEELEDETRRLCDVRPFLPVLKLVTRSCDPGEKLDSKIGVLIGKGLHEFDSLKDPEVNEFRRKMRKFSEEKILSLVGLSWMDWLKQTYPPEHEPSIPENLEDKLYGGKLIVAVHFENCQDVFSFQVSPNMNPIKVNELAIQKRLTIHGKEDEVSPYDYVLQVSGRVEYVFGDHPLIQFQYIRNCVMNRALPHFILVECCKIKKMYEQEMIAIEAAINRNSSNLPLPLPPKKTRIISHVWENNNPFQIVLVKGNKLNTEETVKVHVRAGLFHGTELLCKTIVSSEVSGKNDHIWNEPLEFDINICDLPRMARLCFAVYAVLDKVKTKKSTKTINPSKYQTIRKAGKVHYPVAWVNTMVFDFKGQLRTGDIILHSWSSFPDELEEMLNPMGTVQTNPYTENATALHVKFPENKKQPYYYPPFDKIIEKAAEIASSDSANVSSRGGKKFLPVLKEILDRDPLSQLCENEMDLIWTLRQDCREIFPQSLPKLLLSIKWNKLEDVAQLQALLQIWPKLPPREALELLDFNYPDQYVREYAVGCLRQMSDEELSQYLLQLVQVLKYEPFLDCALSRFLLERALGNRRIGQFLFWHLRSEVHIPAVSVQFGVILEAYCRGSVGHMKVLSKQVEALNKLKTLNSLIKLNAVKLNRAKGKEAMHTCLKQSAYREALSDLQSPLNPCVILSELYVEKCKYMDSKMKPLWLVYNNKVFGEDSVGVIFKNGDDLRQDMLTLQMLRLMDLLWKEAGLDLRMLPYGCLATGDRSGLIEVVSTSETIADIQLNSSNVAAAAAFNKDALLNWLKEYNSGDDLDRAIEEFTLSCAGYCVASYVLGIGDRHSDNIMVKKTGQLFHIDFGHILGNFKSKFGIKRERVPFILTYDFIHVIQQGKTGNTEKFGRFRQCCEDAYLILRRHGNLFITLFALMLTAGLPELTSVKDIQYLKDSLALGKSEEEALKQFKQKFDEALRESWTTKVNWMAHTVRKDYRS

Question: Which results are given for `CC(C)Oc1ccc(-c2nn([C@H](C)c3oc4ccc(F)cc4c(=O)c3-c3cccc(F)c3)c3ncnc(N)c23)cc1F`?
Answer: Kd [1]: > 10000 nM; Kd [2]: > 10000 nM; Kd [3]: > 1400 nM

Question: How did the GI50 (HBL) turn out when `Nc1ncnc2c1c(-c1ccc(Oc3ccccc3)cc1)nn2[C@@H]1CCCN(C(=O)c2cn(CCOCCOCCOCCNc3cccc4c3C(=O)N(C3CCC(=O)NC3=O)C4=O)nn2)C1` (some centres undefined) was run?
Answer: The GI50 was 28 nM.

Question: With `CN1CCN([C@H]2CC[C@H](n3cc(-c4ccc(Oc5ccccc5)cc4)c4c(N)ncnc43)CC2)CC1` as the compound, how does the IC50 [4] read?
Answer: Its IC50 is 9 nM.

Question: And the IC50 [5]?
Answer: Its IC50 is < 3 nM.

Question: And the IC50 [6]?
Answer: Its IC50 is < 3 nM.

Question: `COc1cccc2cc(-c3nc([C@H]4CC[C@H](C(=O)O)CC4)n4ncnc(N)c34)[nH]c12` [OSI-027] was tested. Which inhibition in vivo at 25 mg/kg (MDA-MB-231 [7]) did it give?
Answer: The inhibition in vivo at 25 mg/kg was 90%.

Question: And the inhibition in vivo at 65 mg/kg (MDA-MB-231 [8])?
Answer: Its inhibition in vivo at 65 mg/kg is 100%.
